According to patent US8772286B2, “MK2 inhibitors” (Merck Sharp & Dohme B.V., priority 2009, dated 2014):
Converted amounts (≈) assume the structure as drawn. Where two headings read alike, the source gives them in different places.

Tests used:
MK2 enzyme = molecular target: T1, MK2 enzyme (Homo sapiens, UniProt P49137); experiment: MK2 enzyme activity, IMAP fluorescence polarization assay; type: biochemical
T1 construct: MK2 enzyme (active enzyme (peptide 46-end (Millipore))); purchased Millipore
T1 sequence (P49137 46-400 limits assumed): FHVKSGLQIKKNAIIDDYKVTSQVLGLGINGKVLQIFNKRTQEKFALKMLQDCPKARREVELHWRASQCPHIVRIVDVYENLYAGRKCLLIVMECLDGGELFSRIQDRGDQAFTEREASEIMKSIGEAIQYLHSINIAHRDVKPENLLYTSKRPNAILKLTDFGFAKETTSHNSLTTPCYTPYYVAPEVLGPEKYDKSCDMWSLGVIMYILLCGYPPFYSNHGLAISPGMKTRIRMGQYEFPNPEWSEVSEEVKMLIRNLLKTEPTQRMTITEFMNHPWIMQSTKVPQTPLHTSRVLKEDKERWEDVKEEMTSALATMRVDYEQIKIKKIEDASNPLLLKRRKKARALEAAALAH
Source text: In another assay the MK2 kinase activity can be determined by using an IMAP assay (Immobilized Metal Assay for Phosphochemicals—based coupled assay). IMAP is a homogeneous fluorescence polarization (FP) assay based on affinity capture of phosphorylated peptide substrates. IMAP uses fluorescein-labeled peptide substrates that, upon phosphorylation by a protein kinase, bind to so called IMAP nanoparticles, which are derivatized with trivalent metal complexes. […] In such an assay, MK2 phosphorylates a fluorescein-labeled peptide substrate (see example 14).
MK2 enzyme activity is measured using the IMAP (immobilized metal ion affinity-based fluorescence polarization) assay as outlined below.
The enzyme is diluted to 100 U/mL the day before use in KR buffer (10 mM Tris-HCl, 10 mM MgCl2, 0.01% Tween-20, 0.05% NaN3, 2 mM DTT, pH 7.2) and stored overnight at −20° C.
The dilutions in DMSO are then diluted 50-fold in KR-buffer of which 5 μl is used in the assay, leading to a final compound concentration range in the assay from 10 μM to 0.316 nM.
After 60 min incubation at room temperature in the dark the FP signal is read. Fluorescence at 535 nm is measured using parallel and perpendicular filters to determine differences in rotation due to binding of the phosphorylated substrate peptide to the beads. Values are calculated as percentage of the difference in readout (ΔmPi) of the controls with and without ATP. EC50 values are determined by curve fitting of the experimental results using Activity Base.

[1] = Solubility determination of MK2 inhibitors (kinetic aqueous solubility, UPLC); type: physicochemical; conditions: aqueous buffer (system solution from pION inc.), 22 °C, pH 7.4, aqueous buffer, kinetic from dmso stock
Experimental: The solubility can be determined using the Automated Kinetic Aqueous Solubility (AKASol) method, which is an HPLC-UV based method. The method is derived from the classical saturated shake-flask solubility method which has been adapted to the 96-well microtitre plate format, allowing the use of DMSO stock solutions. The solubility is determined by measuring the amount of compound in a saturated aqueous solution, quantified by an external calibration curve of the compound dissolved in DMSO. The solubility (mg/L) is measured at pH 7.4, at room temperature and the final concentration of DMSO in the sample solution is 1%.
The samples were prepared from 10 mM DMSO stock solutions. For each compound under investigation, a volume (9 μL) of the DMSO stock solution is transferred from the DMSO stock solution into 891 μL of buffer solution (system solution from pION inc.) in a 96 deep well plate, which equates to approximately 1% DMSO, using the Packard Multiprobe II robot liquid handling system. The pH of the buffer is manually adjusted at pH 7.4 by adding NaOH. This procedure is done in duplicate for each sample. After shaking for 24 h on a vortex mixer (Heidolph, Titramax 101) at 450 rpm and at room temperature (21-23° C.), 300 uL of the incubated sample is transferred from the deep well plate to a filter plate (PVDF, 0.45 um) on a vacuum manifold. To the filtrate (150 uL) 1-propanol (50 uL) is added to suppress precipitation and this solution is then analysed by UPLC. The solubility is determined using the calibration line previously prepared.
Preparation of the Standards and Built up of a Calibration Line
The calibration line is built with different concentrations of the test compound (standards), prepared from the same 10 mM DMSO stock solution. A volume (7 uL) from the same DMSO stock solution was diluted with DMSO (273 uL) leading to a solution with concentration of 0.25 mM. From this solution, three different injection volumes (0.2, 1, 1.8 uL) were injected on UPLC. The respective peak areas are plotted against amount of compound to build up the calibration line. The calibration line is used to determine the amount of dissolved compound in each sample, selecting the injection that gave peak areas closest to the peak area range of the calibration standards.

[2] = MK2 IMAP assay, 1 μM ATP, 30 min pre-incubation, 2 h room temperature, read-out: pEC50 value (converted)
[3] = pH 7.4, room temperature, about 1% DMSO, 24 h shaking, read-out: solubility
[4] = Table 1, compound of Formula (I) with spiro ring, pH 7.4, read-out: Solubility pH 7.4 (mg/L), Formula (I)
[5] = Table 1, comparison compound of Formula (XV) without spiro ring, pH 7.4, read-out: Solubility pH 7.4 (mg/L), Formula (XV)
[6] = Table 2, comparison compound of Formula (XVI), spiro ring without amine, MK2 IMAP assay, read-out: pEC50, Formula (XVI) (converted)

SMILES | EC50 (MK2 enzyme; [2]) [nM] | solubility at 24 h [1, 3] [mg/L] | also measured
CC(C)COc1ccc(-c2nccc(-c3cc4c([nH]3)C3(CCNCC3)CNC4=O)n2)cc1 [1—27, 2′-(2-(4-isobutoxyphenyl)pyrimidin-4-yl)-5′,6′-dihydrospiro[piperidine-4,7′-pyrrolo[3,2-c]pyridin]-4′(1′H)-one] | 3.16 to 31.6 | ≥ 50 | 
O=C1NCC2(CCNCC2)c2[nH]c(-c3ccnc(-c4ccc5c(c4)OCO5)n3)cc21 [16_5 Formula (I)] |  |  | pEC50, Formula (I) (MK2 enzyme; Table 1, compound of Formula (I) with spiro ring, MK2 IMAP assay): 8.4; solubility at 24 h [1, 4]: 37 mg/L
O=C1NCC2(CCNCC2)c2[nH]c(-c3ccnc(-c4cccc(-c5ccccc5)c4)n3)cc21 [1—33, 2′-(2-(biphenyl-3-yl)pyrimidin-4-yl)-5′,6′-dihydrospiro[piperidine-4,7′-pyrrolo[3,2-c]pyridin]-4′(1′H)-one] | 31.6 to 316 | ≥ 50 | 
CC(=O)c1ccc(-c2nccc(-c3cc4c([nH]3)CCNC4=O)n2)cc1 [16_8 Formula (XV)] |  |  | EC50 (MK2 enzyme; Table 1, comparison compound of Formula (XV) without spiro ring, MK2 IMAP assay, read-out: pEC50, Formula (XV) (converted)): 126 nM; solubility at 24 h [1, 5]: 3 mg/L
Cc1ccc(-c2nccc(-c3cc4c([nH]3)C3(CCNC3)CNC4=O)n2)cc1 (centres unmarked) [6—3, 2′-(2-p-tolylpyrimidin-4-yl)-5′,6′-dihydrospiro[pyrrolidine-3,7′-pyrrolo[3,2-c]pyridin]-4′(1′H)-one] | 3.16 to 31.6 | ≥ 50 | 
CN1CCC2(CC1)CNC(=O)c1cc(-c3ccnc(-c4cc5ccccc5o4)n3)[nH]c12 [Example 2—1, 2′-(2-(benzofuran-2-yl)pyrimidin-4-yl)-1-methyl-5′,6′-dihydrospiro[piperidine-4,7′-pyrrolo[3,2-c]pyridin]-4′(1′H)-one] |  | 20 to 50 (≈ 48.4 to 121 µM) | EC50 (MK2 enzyme): 3.16 to 31.6 nM
O=C1NCC2(CCCC2)c2[nH]c(-c3ccnc(-c4cnc5ccccc5c4)n3)cc21 [17_3 Formula (XVI)] |  |  | EC50 (MK2 enzyme; [6]): 251 nM
CC(=O)Nc1ccc(-c2nccc(-c3cc4c([nH]3)C3(CCNCC3)CNC4=O)n2)cn1 [1—8, N-(5-(4-(4′-oxo-1′,4′,5′,6′-tetrahydrospiro[piperidine-4,7′-pyrrolo[3,2-c]pyridine]-2′-yl)pyrimidin-2-yl)pyridin-2-yl)acetamide] | 3.16 to 31.6 | ≥ 50 | 
O=C1NCC2(CCNCC2)c2[nH]c(-c3ccnc(-c4cccc(C(F)(F)F)c4)n3)cc21 [1—35, 2′-(2-(3-(trifluoromethyl)phenyl)pyrimidin-4-yl)-5′,6′-dihydrospiro[piperidine-4,7′-pyrrolo[3,2-c]pyridin]-4′(1′H)-one] | 3.16 to 31.6 | ≥ 50 | 
O=C(Nc1nccc(-c2cc3c([nH]2)C2(CCCNC2)CNC3=O)n1)c1ccc(C(F)(F)F)cc1 (centres unmarked) [Example 13—1, N-(4-(4′-oxo-1′,4′,5′,6′-tetrahydrospiro[piperidine-3,7′-pyrrolo[3,2-c]pyridine]-2′-yl)pyrimidin-2-yl)-4-(trifluoromethyl)benzamide] | 31.6 to 316 | 20 to 50 (≈ 42.5 to 106 µM) | 
O=C1NCC2(CCNCC2)c2[nH]c(-c3ccnc(-c4cc5ccccc5o4)n3)cc21 [Example 1—1, 2′(2-(benzofuran-2-yl)pyrimidin-4-yl)-5′,6′-dihydrospiro[piperidine-4,7′-pyrrolo[3,2-c]pyridin]-4′(1′H)-one] | 3.16 to 31.6 | 20 to 50 (≈ 50.1 to 125 µM) | 
O=C1NCC2(CCNCC2)c2[nH]c(-c3ccnc(-c4cnc(NC5CCCC5)nc4)n3)cc21 [11—1, 2′-(2′-(cyclopentylamino)-2,5′-bipyrimidin-4-yl)-5′,6′-dihydrospiro[piperidine-4,7′-pyrrolo[3,2-c]pyridin]-4′(1′H)-one] | ≤ 3.16 | ≥ 50 | 
CC(=O)NCCCN1CCC2(CC1)CNC(=O)c1cc(-c3ccnc(-c4cc5ccccc5o4)n3)[nH]c12 [3—2, N-(3-(2′-(2-(benzofuran-2-yl)pyrimidin-4-yl)-4′-oxo-1′,4′,5′,6′-tetrahydrospiro[piperidine-4,7′-pyrrolo[3,2-c]pyridine]-1-yl)propyl)acetamide] | 31.6 to 316 | ≥ 50 | 
O=C1NCC2(CCNC2)c2[nH]c(-c3ccnc(-c4ccc5c(c4)OCO5)n3)cc21 (centres unmarked) [6—2, 2′-(2-(benzo[d][1,3]dioxol-5-yl)pyrimidin-4-yl)-5′,6′-dihydrospiro[pyrrolidine-3,7′-pyrrolo[3,2-c]pyridin]-4′(1′H)-one] | 3.16 to 31.6 | ≥ 50 | 
O=C1NCC2(CCNCC2)c2[nH]c(-c3ccnc(-c4ccc(Cl)cc4F)n3)cc21 [1—32, 2′-(2-(4-chloro-2-fluorophenyl)pyrimidin-4-yl)-5′,6′-dihydrospiro[piperidine-4,7′-pyrrolo[3,2-c]pyridin]-4′(1′H)-one] | 3.16 to 31.6 | ≥ 50 | 
O=C1NCC2(CCNCC2)c2[nH]c(-c3ccnc(-c4cc5ccccc5s4)n3)cc21 [1—28, 2′-(2-(benzo[b]thiophen-2-yl)pyrimidin-4-yl)-5′,6′-dihydrospiro[piperidine-4,7′-pyrrolo[3,2-c]pyridin]-4′(1′H)-one] | 3.16 to 31.6 | ≥ 50 | 
CCN1CCC2(CC1)CNC(=O)c1cc(-c3ccnc(-c4cc5ccccc5o4)n3)[nH]c12 [2—2, 2′-(2-(benzofuran-2-yl)pyrimidin-4-yl)-1-ethyl-5′,6′-dihydrospiro[piperidine-4,7′-pyrrolo[3,2-c]pyridin]-4(1′H)-one] |  | ≥ 50 | EC50 (MK2 enzyme): 31.6 to 316 nM
O=C1NCC2(CCNCC2)c2[nH]c(-c3ccnc(-c4ccc(-c5ccccc5)cc4)n3)cc21 [1—12, 2′-(2-(biphenyl-4-yl)pyrimidin-4-yl)-5′,6′-dihydrospiro[piperidine-4,7′-pyrrolo[3,2-c]pyridin]-4′(1′H)-one] | 3.16 to 31.6 | 20 to 50 (≈ 45.9 to 115 µM) | 
O=C1NCC2(CCCNC2)c2[nH]c(-c3ccnc(-c4ccc5c(c4)OCO5)n3)cc21 (centres unmarked) [5—2, 2′-(2-(benzo[d][1,3]dioxol-5-yl)pyrimidin-4-yl)-5′,6′-dihydrospiro[piperidine-3,7′-pyrrolo[3,2-c]pyridin]-4′(1′H)-one] | 3.16 to 31.6 | ≥ 50 | 
CC(=O)c1ccc(-c2nccc(-c3cc4c([nH]3)C3(CCNCC3)CNC4=O)n2)cc1 [16_8 Formula (I)] |  |  | EC50 (MK2 enzyme; Table 1, compound of Formula (I) with spiro ring, MK2 IMAP assay, read-out: pEC50, Formula (I) (converted)): 6.31 nM; solubility at 24 h [1, 4]: 35 mg/L
O=C1NCC2(CCOCC2)c2[nH]c(-c3ccnc(-c4ccc5c(c4)OCO5)n3)cc21 [17_1 Formula (XVI)] |  |  | EC50 (MK2 enzyme; [6]): 794 nM; solubility at 24 h ([1]; Table 2, comparison compound of Formula (XVI), spiro ring without amine, pH 7.4, read-out: Solubility pH 7.4 (mg/L), Formula (XVI)): 2 mg/L
O=C1NCCc2[nH]c(-c3ccnc(-c4cnc5ccccc5c4)c3)cc21 [16_1 Formula (XV)] |  |  | solubility at 24 h [1, 5]: 2 mg/L
O=C1NCC2(CCCC2)c2[nH]c(-c3ccnc(-c4cccc(F)c4)n3)cc21 [17_4 Formula (XVI)] |  |  | EC50 (MK2 enzyme; [6]): 316 nM
O=C1NCCc2[nH]c(-c3ccnc(-c4cnc5ccccc5c4)n3)cc21 [16_2 Formula (XV)] |  |  | EC50 (MK2 enzyme): 10 nM
